Series [1] in a line: Solubility in resist solvent (PGMEA). The following applies: for Solubility: in propylene glycol monomethyl ether acetate (PGMEA). Format: physicochemical.
Series [2] can be described thus: Compatibility of PAG with resist (base resin). The following applies: for Compatibility: acid generator (1.0), PGMEA (400).

Counter-ions that a name gives are not always drawn.

Turning to `CC(CC(S(=O)(=O)C(F)(F)F)S(=O)(=O)C(F)(F)F)OC(=O)C12CC3CC(CC(C3)C1)C2` (centres unmarked) [PAG1, 3-(1-adamantanecarbonyl)oxy 1,1-bis(trifluoromethanesulfonyl)butane triphenylsulfonium salt], the “Solubility compared with existing PAG (PAG2) having an adamantane skeleton” value in series [1] (in PGMEA, statement in words) was “superior”. For the same molecule, in series [1], the Solubility entry is “not less than 0.1 parts by weight of PAG dissolved in 100 parts by weight of PGMEA”. Besides, the Compatibility entry in series [2] (Resin 1 (40 parts by wt.)), in series [2] (Resin 2 (40 parts by wt.)), in series [2] (Resin 3 (40 parts by wt.)), in series [2] (Resin 4 (40 parts by wt.)) and in series [2] (Resin 5 (40 parts by wt.)) was “Good” throughout. For the same molecule, the “Compatibility with resists compared with conventional products” value in series [2] (summary of Table 2 and Table 3, in words) is “higher compatibility with resists as compared with conventional products”.

With “nonafluorobutanesulfonic acid triphenylsulfonium salt [PAG3, reference compound]”, in series [2] (Resin 1 (40 parts by wt.)), the Compatibility result is recorded as “Good”.

As to “(adamantan-1-ylmethyl)oxycarbonyl difluoromethanesulfonic acid triphenylsulfonium [PAG2, reference compound]”, the Solubility in series [1] is on record as 0.3 parts by weight of PAG dissolved in 100 parts by weight of PGMEA. Further, the Compatibility result in series [2] (Resin 1 (40 parts by wt.)), in series [2] (Resin 2 (40 parts by wt.)), in series [2] (Resin 3 (40 parts by wt.)) and in series [2] (Resin 4 (40 parts by wt.)) was “Good” in each case.

For the origin of these results see patent publication US8580486B2, “Salt having fluorine-containing carbanion structure, derivative thereof, photoacid generator, resist material using the photoacid generator, and pattern forming method” (Central Glass Company, Limited, priority 2008, dated 2013).
